Measurements reported in patent US7601745B2, “Heterocyclic NF-kB inhibitors” (4SC AG, priority 2004, dated 2009).

What follows are compounds tested on A549-NF-κB-SEAP reporter cells (assay: Inhibition of NF-κB-induced inflammation ([…] NINA Instant Assay, SEAP reporter)). Settings: compounds of formula (I); TNF-α stimulated reporter cells; test concentration not given.
Type: cell-based
Method in brief: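 Reporter cells reactivated 18 h at 37° C, pre-incubated 4.5 h with compound (0.01 up to 100 μM), then stimulated with 2 ng/ml TNF-α for 22 h. SEAP measured by CSPD chemiluminescence (40 min) after endogenous phosphatase inactivation; EC50 fitted from quadruplicates.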

| Compound | Biological activity (NF-κB inflammation assay, inhibition) |
| --- | --- |
| O=C(c1csc(C2CCN(S(=O)(=O)c3ccc(Cl)cc3)CC2)n1)N1CCN(c2cccc(C(F)(F)F)c2)CC1 [compound 206] | + (“+” stands for 50-80% inhibition) |
| CC(=O)Nc1ccc(S(=O)(=O)N2CCC(c3nc(C(=O)N4CCN(c5cccc(C(F)(F)F)c5)CC4)cs3)CC2)cc1 [compound 207] | + (“+” stands for 50-80% inhibition) |
| O=C(c1csc(C2CCN(S(=O)(=O)c3ccccc3)CC2)n1)N1CCN(c2cccc(C(F)(F)F)c2)CC1 [compound 208] | + (“+” stands for 50-80% inhibition) |
| COc1cccc(C(=O)N2CCC(c3nc(C(=O)N4CCN(c5cccc(C(F)(F)F)c5)CC4)cs3)CC2)c1 [compound 209] | + (“+” stands for 50-80% inhibition) |
| CN1CCOc2cc(C(=O)N3CCC(c4nc(C(=O)N5CCN(c6cccc(C(F)(F)F)c6)CC5)cs4)CC3)ccc21 [compound 210] | ++ (“++” means 80-90%) |
| O=C(c1ccc2nccnc2c1)N1CCC(c2nc(C(=O)N3CCN(c4cccc(C(F)(F)F)c4)CC3)cs2)CC1 [compound 211] | + (“+” stands for 50-80% inhibition) |
| O=C(c1csc(C2CCN(C(=O)c3cccs3)CC2)n1)N1CCN(c2cccc(C(F)(F)F)c2)CC1 [compound 212] | + (“+” stands for 50-80% inhibition) |
| O=C(c1csc(C2CCN(C(=O)c3cc4ccccc4s3)CC2)n1)N1CCN(c2cccc(C(F)(F)F)c2)CC1 [compound 213] | ++ (“++” means 80-90%) |
| O=C(C=Cc1ccccc1)N1CCC(c2nc(C(=O)N3CCN(c4cccc(C(F)(F)F)c4)CC3)cs2)CC1 [compound 214] | ++ (“++” means 80-90%) |
| O=C(c1ccc(C(F)(F)F)c(F)c1)N1CCC(c2nc(C(=O)N3CCN(c4cccc(C(F)(F)F)c4)CC3)cs2)CC1 [compound 215] | +++ (“+++” stands for 90-100% inhibition) |
| Cn1nc(C(C)(C)C)cc1C(=O)N1CCC(c2nc(C(=O)N3CCN(c4cccc(C(F)(F)F)c4)CC3)cs2)CC1 [compound 216] | ++ (“++” means 80-90%) |
| O=C(c1csc(C2CCN(C(=O)C3COc4ccccc4O3)CC2)n1)N1CCN(c2cccc(C(F)(F)F)c2)CC1 (centres unmarked) [compound 217] | +++ (“+++” stands for 90-100% inhibition) |
| O=C(c1csc(C2CCN(C(=O)c3cc(-c4ccc(Cl)cc4)oc3C(F)(F)F)CC2)n1)N1CCN(c2cccc(C(F)(F)F)c2)CC1 [compound 218] | +++ (“+++” stands for 90-100% inhibition) |
| Cc1noc(C)c1C(=O)N1CCC(c2nc(C(=O)N3CCN(c4cccc(C(F)(F)F)c4)CC3)cs2)CC1 [compound 219] | + (“+” stands for 50-80% inhibition) |
| Cc1nnsc1C(=O)N1CCC(c2nc(C(=O)N3CCN(c4cccc(C(F)(F)F)c4)CC3)cs2)CC1 [compound 221] | + (“+” stands for 50-80% inhibition) |
| O=C(c1cccnc1)N1CCC(c2nc(C(=O)N3CCN(c4cccc(C(F)(F)F)c4)CC3)cs2)CC1 [compound 222] | + (“+” stands for 50-80% inhibition) |
| O=C(c1csc(C2CCN(C(=O)c3ccccc3OC(F)(F)F)CC2)n1)N1CCN(c2cccc(C(F)(F)F)c2)CC1 [compound 223] | +++ (“+++” stands for 90-100% inhibition) |
| O=C(CCC1CCCC1)N1CCC(c2nc(C(=O)N3CCN(c4cccc(C(F)(F)F)c4)CC3)cs2)CC1 [compound 224] | + (“+” stands for 50-80% inhibition) |
| COc1cc(C(=O)N2CCC(c3nc(C(=O)N4CCN(c5cccc(C(F)(F)F)c5)CC4)cs3)CC2)cc(OC)c1OC [compound 225] | + (“+” stands for 50-80% inhibition) |
| CN(C)c1cccc(C(=O)N2CCC(c3nc(C(=O)N4CCN(c5cccc(C(F)(F)F)c5)CC4)cs3)CC2)c1 [compound 226] | ++ (“++” means 80-90%) |
| COc1ccccc1N1CCN(C(=O)c2csc(C3CCN(C(=O)Cc4ccc(F)cc4)CC3)n2)CC1 [compound 229] | + (“+” stands for 50-80% inhibition) |
| O=C(c1csc(C2CCN(C(=O)c3ccco3)CC2)n1)N1CCN(c2cccc(C(F)(F)F)c2)CC1 [compound 230] | + (“+” stands for 50-80% inhibition) |
| CCCCN1CCN(C(=O)c2csc(C3CCN(C(=O)Cc4ccc(F)cc4)CC3)n2)CC1 [compound 231] | + (“+” stands for 50-80% inhibition) |
| O=C(Cc1ccc(F)cc1)N1CCC(c2nc(C(=O)N3CCN(c4ccccn4)CC3)cs2)CC1 [compound 237] | + (“+” stands for 50-80% inhibition) |
| O=C(Cc1ccc(F)cc1)N1CCC(c2nc(C(=O)N3CCN(c4cccc(Cl)c4)CC3)cs2)CC1 [compound 238] | + (“+” stands for 50-80% inhibition) |

Same assay, conditions: compounds of formula (Ic); TNF-α stimulated reporter cells; test concentration not given

| Compound | Biological activity (NF-κB inflammation assay, inhibition) |
| --- | --- |
| COc1cc2c(cc1OC)CN(C(=O)c1csc(C3CCN(C(=O)Cc4ccc(F)cc4)CC3)n1)C(C)C2 (centres unmarked) [compound 232] | + (“+” stands for 50-80% inhibition) |
| CC1c2cc(O)c(O)cc2CCN1C(=O)c1csc(C2CCN(C(=O)Cc3ccc(F)cc3)CC2)n1 (centres unmarked) [compound 233] | + (“+” stands for 50-80% inhibition) |
| COc1cc2c(cc1OC)C(C)N(C(=O)c1csc(C3CCN(C(=O)Cc4ccc(F)cc4)CC3)n1)CC2 (centres unmarked) [compound 234] | + (“+” stands for 50-80% inhibition) |
| CNc1ccc(Cl)cc1C1c2ccccc2CCN1C(=O)c1csc(C2CCN(C(=O)Cc3ccc(F)cc3)CC2)n1 (centres unmarked) [compound 235] | + (“+” stands for 50-80% inhibition) |
